Experiment [1] relates to co-stimulatory molecules CD40, CD80, CD86 and MHCII. The experiment is described as follows: Co-stimulatory molecules in lung dendritic cells, E. coli-EV-induced model (FACS). It counts as in vivo, mice. As to conditions: 1 mg/kg twice a day, FIG. 5. As to the method:
In order to examine whether the extract of the present invention has the effect of inhibiting the expression of co-stimulatory molecules in dendritic cells isolated from the lung tissue of an E. coli-EV-induced asthma/chronic obstructive pulmonary disease model, the following test was performed.
Specifically, a portion of the lung tissue obtained in Test Example 8-4 was cut finely with a blade, and then incubated with 5 ml of 1× Trypsin-EDTA and 1000 units of collagenase at 37 °C for 10 minutes. Then, the tissue was passed through a 100 μm mesh to collect only immune cells, and the cells were double-stained with each of the dendritic cell marker CD11c and the co-stimulatory molecules CD40, CD80, CD86 and MHCII (major histocompatibility complex II). Next, the expression levels of the co-stimulatory molecules in the dendritic cells were measured using FACS (fluorescence activated cell sorter), and the results of the measurement are shown in FIG. 5.

A further experiment addresses T1, 5-lipoxygenase (Rattus norvegicus, UniProt P12527).
T1 construct: rat basophilic leukemia cells (RBL-1) were stabilized using serum-free RPMI medium; endogenous in cells; host or cells: RBL-1 (rat basophilic leukemia cells)
Nature of the experiment: 5-Lipoxygenase inhibitory activity (leukotriene production in RBL-1 cells, cysteinyl leukotriene EIA). Type of experiment: cell-based. The conditions noted are these: 2 μM; RBL-1 cells; read-out: 5-lipoxygenase inhibition rate(%). As to the method:
Specifically, rat basophilic leukemia cells (RBL-1) were stabilized using serum-free RPMI medium at 37° C., and each of the extracts and arachidonic acid as a substrate were added thereto and incubated for 15 minutes to produce leukotriene. The amount of the produced leukotriene was measured using a cysteinyl leukotriene EIA kit. As comparative drugs, the 5-lipoxygenase inhibitors zileuton and montelukast were used.

For experiment [2], the system named is airway constriction of the sensitized guinea pigs. Nature of the experiment: Test for airway constriction inhibition (in vivo), airway resistance AUC after ovalbumin aerosol. The conditions noted are these: oral dose 10 mg/kg.

For orientation: inhibition means how much of the control response was suppressed.

T1 sequence (P12527 whole entry): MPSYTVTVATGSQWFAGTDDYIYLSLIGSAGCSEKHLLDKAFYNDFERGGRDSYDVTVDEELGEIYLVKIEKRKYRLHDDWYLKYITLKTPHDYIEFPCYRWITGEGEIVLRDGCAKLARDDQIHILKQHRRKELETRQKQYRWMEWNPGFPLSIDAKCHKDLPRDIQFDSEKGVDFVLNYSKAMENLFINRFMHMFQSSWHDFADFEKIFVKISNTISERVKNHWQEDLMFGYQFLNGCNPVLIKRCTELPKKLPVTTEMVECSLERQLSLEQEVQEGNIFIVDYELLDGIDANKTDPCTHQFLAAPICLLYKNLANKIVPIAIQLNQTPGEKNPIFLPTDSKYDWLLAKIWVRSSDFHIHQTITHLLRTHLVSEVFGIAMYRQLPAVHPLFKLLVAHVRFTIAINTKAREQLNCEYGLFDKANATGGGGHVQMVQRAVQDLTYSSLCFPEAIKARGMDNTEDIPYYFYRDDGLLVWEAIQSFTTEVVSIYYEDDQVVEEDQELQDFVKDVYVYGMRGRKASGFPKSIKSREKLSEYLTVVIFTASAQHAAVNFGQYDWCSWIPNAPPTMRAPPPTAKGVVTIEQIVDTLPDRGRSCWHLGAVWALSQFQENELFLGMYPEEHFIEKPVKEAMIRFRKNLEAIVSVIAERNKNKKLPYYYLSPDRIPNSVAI

For `C[C@@H]1C[C@H]2[C@@H]3CCC4=CC(=O)C=C[C@]4(C)[C@@]3(F)[C@@H](O)C[C@]2(C)[C@@]1(O)C(=O)CO` [Dexamethason, dexamethason], the “expression levels of the co-stimulatory molecules in the dendritic cells” value in experiment [1] was “a decrease in the expression of CD86 and MHCII”.

`CC(C)(O)c1ccccc1CC[C@@H](SCC1(CC(=O)O)CC1)c1cccc(/C=C/c2ccc3ccc(Cl)cc3n2)c1` [montelukast]: the inhibition at 2 µM on 5-lipoxygenase amounted to 45%. Also, in experiment [2], the “Airway constriction inhibition rate (%)” value was found to be 53%.

(Values after US20140030368A1, “COMPOSITION FOR PREVENTING OR TREATING A RESPIRATORY DISEASE CONTAINING A MIXED HERBAL EXTRACT OF CNIDIUM OFFICINALE ROOT AND POLYGONI CUSPIDATI ROOT” (WHANIN PHARMACEUTICAL CO., LTD., priority 2011, published 2014).)
